{"source": "patent US20130274270A1", "about": "“POLYMORPHS OF 3-CHLORO-4[(2R)-2-(4-CHLOROPHENYL)-4-[(1R)-1-(4-CYANOPHENYL)ETHYL]-1-PIPERAZINYL]-BENZONITRILE, PHARMACEUTICAL COMPOSITIONS AND METHOD OF USE COMPRISING SAID POLYMORPHS, AND A PROCESS FOR PREPARING THEM” (priority 2010, published 2013)", "format_in_all_cases": "physicochemical", "key": {"[1]": {"assay": "Photosensitivity", "conditions": "especially in solution"}, "[2]": {"assay": "Solvent-mediated polymorphic transformation experiments (slurry / slow evaporation, PXRD)", "method": "Solvent-mediated polymorphic transformation experiments were conducted by combining approximately 100 mg of starting material with 1 milliliter of solvent in a 4 mL amber glass vial. A polytetrafluoroethylene coated magnetic stir bar was added to each vial. For suspensions, the vials were sealed with polytetrafluoroethylene-lined caps and stirred using magnetic stir plates at 4° C., room temperature, or 50° C. for 14 days. For solutions, the vials were covered with aluminum foil and the solutions were slowly evaporated for 14 days. Solids were collected and analyzed for changes in crystal form. For this work, both slurry and evaporative crystallization was performed. Slurry experiments are utilized to identify the thermodynamically stable form while evaporative crystallizations favor the identification of metastable forms."}, "[3]": {"assay": "Competition slurry experiments", "method": "Competition slurry experiments were conducted by combining approximately 100 milligrams of starting material with 1 milliliter of solvent in a 4 milliliter amber glass vial. A polytetrafluoroethylene coated magnetic stir bar was added to each vial. The slurry sample was stirred for one day and checked to confirm solids were still present. The sample was then seeded with forms identified during the polymorph screening and continued stirring at room temperature for 9 days. Solids were collected and analyzed to determine their crystal form.\nThe evaporative crystallization experiments from solutions produced another polymorph, termed Form II, and two suspected solvates or hydrates. Competition slurries were prepared with Form I, Form II and the suspected solvates or hydrates to confirm they were metastable with respect to Form 1. The competition slurries were prepared by dispersing Form II in isopropanol, a water/methanol mixture at a water activity of 0.5, and water.\nA variable-temperature competition slurry was repeated using Forms I and III by suspending approximately 100 mg of each form in 2 milliliters of isopropanol at 4° C., room temperature, 40° C., and 50° C. The slurries were allowed to stir for 11 days and checked by PXRD. […] Afterwards, the solutions were seeded with Form I and stirred for 1 day."}, "[4]": {"assay": "Thermogravimetric analysis (TGA)", "method": "(§1) All powder X-ray diffraction (PXRD) data was collected using a Rigaku Miniflex instrument. Samples were analyzed on silicon zero background holders from 2 to 40 degrees two theta with a step size of 0.02 degrees two theta and a scan time of 0.6 seconds per step. Differential scanning calorimetry (DSC) data was collected using a Q100 DSC from TA Instruments. Samples were sealed in hermetic aluminum pans with two pinholes in the lid. All were analyzed under nitrogen purge. Vapor sorption analysis was performed using a SGA-100 from VTI Scientific Instruments. Thermogravimetric analysis (TGA) data was collected on a Q500 TGA from TA Instruments. Samples were analyzed in platinum pans under a nitrogen purge."}, "[5]": {"assay": "Temperature-solubility profile in isopropanol (Crystal 16)", "method": "To further characterize Form III, temperature-solubility profiles were constructed for both Form I and III. Different amounts of each form were suspended in 1 milliliter of isopropanol to prepare solutions of varying concentrations. The experiments were conducted on Crystal 16 to generate a temperature-solubility profile. The suspensions were slowly heated from 20° C. to 75° C. at 0.1° C./min and then cooled to 0° C. at a rate of 0.1° C. /min. The stirring rate was 700 rpm during the entire experiment."}, "[6]": {"assay": "Change in crystal form as a function of pressure (Carver press)", "conditions": "13 mm die, approximately 4000 pounds, approximately 30 seconds", "method": "Change in crystal form as a function of pressure was evaluated by pressing 86.0 mg of material in a 13 millimeter die at approximately 4000 pounds for approximately 30 seconds with a carver press."}, "[7]": {"assay": "Vapor sorption analysis (change in crystal form as a function of moisture)", "conditions": "25° C.", "method": "as §1\nChange in crystal form as a function of moisture was evaluated by a SGA-100 vapor sorption instrument from VTI Scientific Instruments. Approximately 10 to 15 mg of material was exposed to a relative humidity range from 5% to 95% at 25° C. for 2 cycles."}, "[8]": {"assay": "DSC, heat of fusion rule", "conditions": "monotropically related forms", "method": "as §1"}, "[9]": {"assay": "Change in crystal form as a function of heating (DSC heating rates)", "conditions": "DSC at 2° C., 10° C. and 20° C. per minute", "method": "Change in crystal form as a function of heating was evaluated by analyzing samples of the material using the DSC at heating rates of 2, 10, and 20° C. per minute."}, "[10]": {"assay": "Change in crystal form as a function of milling", "conditions": "ground for 5 seconds at 3800 rpm", "method": "Change in crystal form as a function of milling was conducted by grinding 79.2 milligrams of material in a stainless steel liner with a stainless steel ball pestle using a high speed mixer and amalgamator. The material was ground for 5 seconds at 3800 rpm."}, "[11]": {"conditions": "Acetonitrile, RT/Solution, slowly evaporated 14 days"}, "[12]": {"conditions": "Dichloromethane, RT/Solution, slowly evaporated 14 days"}, "[13]": {"conditions": "Isopropanol, RT/Suspension, stirred 14 days"}, "[14]": {"conditions": "Water, RT/Suspension, stirred 14 days"}, "[15]": {"conditions": "Water/Methanol, 4° C./Suspension, stirred 14 days"}, "[16]": {"conditions": "Water/Methanol, 50° C./Suspension, stirred 14 days"}, "[17]": {"conditions": "Water/Methanol, RT/Suspension, stirred 14 days"}}, "note": "Where a name gives a salt, the structure may show the parent alone."}
{"smiles": "CC(c1ccc(C#N)cc1)N1CCN(c2ccc(C#N)cc2Cl)C(c2ccc(Cl)cc2)C1", "note": "(stereo not drawn) [Formula II]", "values": [{"measurement": "sensitivity to light", "setting": "[1]", "result": "photosensitive"}]}
{"smiles": "C[C@H](c1ccc(C#N)cc1)N1CCN(c2ccc(C#N)cc2Cl)[C@H](c2ccc(Cl)cc2)C1", "note": "[Form II, 3-Chloro-4[(2R)-2-(4-chlorophenyl)-4-[(1R)-1-(4-cyanophenyl)ethyl]-1-piperazinyl]-benzonitrile]", "values": [{"measurement": "PXRD Result", "setting": "[2]; [11]", "result": "Form II"}, {"measurement": "PXRD Result", "setting": "[2]; [12]", "result": "Form II"}, {"measurement": "PXRD Result", "setting": "[2]; [13]", "result": "Form I"}, {"measurement": "PXRD Result", "setting": "[2]; [14]", "result": "Form II"}, {"measurement": "PXRD Result", "setting": "[2]; [15]", "result": "Form I"}, {"measurement": "PXRD Result", "setting": "[2]; [16]", "result": "Form I"}, {"measurement": "PXRD Result", "setting": "[2]; [17]", "result": "Form I"}, {"measurement": "Crystal form of solids collected from competition slurry", "setting": "[3]; Form II dispersed in isopropanol, seeded with the other forms, room temperature", "result": "consistent with Form I"}, {"measurement": "Crystal form of solids collected from competition slurry", "setting": "[3]; Form II dispersed in water, seeded, room temperature", "result": "stayed as Form II"}, {"measurement": "Crystal form of solids collected from competition slurry", "setting": "[3]; Form II dispersed in water/methanol mixture at a water activity of 0.5, seeded, room temperature", "result": "consistent with Form I"}, {"measurement": "decomposition temperature", "setting": "[4]", "result": 310, "unit": "°C"}, {"measurement": "weight loss (TGA)", "setting": "[4]; at 226° C.", "result": 0.6, "unit": "%"}]}
{"smiles": "C[C@H](c1ccc(C#N)cc1)N1CCN(c2ccc(C#N)cc2Cl)[C@H](c2ccc(Cl)cc2)C1", "note": "[Form III, 3-Chloro-4[(2R)-2-(4-chlorophenyl)-4-[(1R)-1-(4-cyanophenyl)ethyl]-1-piperazinyl]-benzonitrile]", "values": [{"measurement": "thermodynamic stability from temperature-solubility profile", "setting": "[5]; above 29.4° C.", "result": "the most thermodynamically stable anhydrous crystalline form"}, {"measurement": "relative solubility", "setting": "[5]; at temperatures greater than 29.4° C.", "result": "less soluble than Form I"}, {"measurement": "Thermodynamic stability by competition slurry experiments", "setting": "[3]", "result": "the most stable form"}, {"measurement": "PXRD result of variable-temperature competition slurry of Forms I and III", "setting": "[3]; about 100 mg of each form in 2 mL isopropanol at 4° C., room temperature, 40° C. and 50° C., 11 days", "result": "Form III was formed under all conditions"}, {"measurement": "PXRD result after seeding with Form I", "setting": "[3]; isopropanol slurries seeded with Form I and stirred for 1 day", "result": "remained as Form III"}, {"measurement": "decomposition temperature", "setting": "[4]", "result": 312, "unit": "°C"}, {"measurement": "weight loss (TGA)", "setting": "[4]; at 228° C.", "result": 0.07, "unit": "%"}]}
{"smiles": "C[C@H](c1ccc(C#N)cc1)N1CCN(c2ccc(C#N)cc2Cl)[C@H](c2ccc(Cl)cc2)C1", "note": "[xinafoate salt]", "values": [{"measurement": "weight loss (TGA)", "setting": "[4]; at 146° C.", "result": 0.2, "unit": "%"}, {"measurement": "behaviour of the salt on melting (large weight loss at melt)", "setting": "[4]; melt at 163.5° C.", "result": "disproportionates or decomposes with melting"}, {"measurement": "weight loss (TGA)", "setting": "[4]; starting from 161° C. and ending at 236° C.", "result": 27.2, "unit": "%"}]}
{"smiles": "C[C@H](c1ccc(C#N)cc1)N1CCN(c2ccc(C#N)cc2Cl)[C@H](c2ccc(Cl)cc2)C1", "note": "[Compound A, 3-Chloro-4[(2R)-2-(4-chlorophenyl)-4-[(1R)-1-(4-cyanophenyl)ethyl]-1-piperazinyl]-benzonitrile]", "values": [{"measurement": "sensitivity to light", "setting": "[1]", "result": "photosensitive"}]}
{"smiles": "C[C@H](c1ccc(C#N)cc1)N1CCN(c2ccc(C#N)cc2Cl)[C@H](c2ccc(Cl)cc2)C1", "note": "[Form I, 3-Chloro-4[(2R)-2-(4-chlorophenyl)-4-[(1R)-1-(4-cyanophenyl)ethyl]-1-piperazinyl]-benzonitrile]", "values": [{"measurement": "change in crystal form after pressing", "setting": "[6]", "result": "no significant change in the crystal form"}, {"measurement": "polymorphic form change after vapor sorption analysis (PXRD before and after)", "setting": "[7]; 5% to 95% relative humidity", "result": "no polymorphic form change"}, {"measurement": "moisture absorbed by weight", "setting": "[7]; between 5% and 95% relative humidity, 2 cycles", "result": 0.07, "unit": "%"}, {"measurement": "relative thermodynamic stability of Form I and Form II (heat of fusion rule)", "setting": "[8]", "result": "the more thermodynamically stable"}, {"measurement": "change in crystal form as a function of heating rate", "setting": "[9]", "result": "no change in the crystal form"}, {"measurement": "PXRD Result", "setting": "[2]; [11]", "result": "Form 2"}, {"measurement": "PXRD Result", "setting": "[2]; [12]", "result": "Form 2"}, {"measurement": "PXRD Result", "setting": "[2]; [13]", "result": "Form 1"}, {"measurement": "PXRD Result", "setting": "[2]; Toluene, 50° C./Solution, 14 days", "result": "Amorphous"}, {"measurement": "PXRD Result", "setting": "[2]; [14]", "result": "Form 1"}, {"measurement": "PXRD Result", "setting": "[2]; [15]", "result": "Form 1"}, {"measurement": "PXRD Result", "setting": "[2]; [16]", "result": "Form 1"}, {"measurement": "PXRD Result", "setting": "[2]; [17]", "result": "Form 1"}, {"measurement": "Thermodynamic stability indicated by slurry experiments", "setting": "[2]; all slurry experiments except those in water, regardless of starting form, water activity or temperature", "result": "the most thermodynamically stable form"}, {"measurement": "Thermodynamic stability by competition slurry experiments", "setting": "[3]", "result": "a stable form"}, {"measurement": "decomposition temperature", "setting": "[4]", "result": "above 295 °C"}, {"measurement": "weight loss (TGA)", "setting": "[4]; at 204° C.", "result": 0.6, "unit": "%"}, {"measurement": "change in crystal form after milling", "setting": "[10]", "result": "no significant change in the crystal form"}]}
